How the values were obtained:
JAK1 = molecular target: T1, JAK1 (Homo sapiens, UniProt P23458); test: JAK tyrosine kinase inhibitory activity in the presence of 1 mM ATP (ELISA), JAK1; assay type: biochemical
T1 construct: purchased Carna Biosciences, Inc
Summary of the method: (§1)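 Recombinant kinase (7.5 nM JAK1; 0.75 nM JAK2, JAK3 working dilutions) reacted 1 h at 30 °C with 1 mM ATP in Tris-HCl pH 7.5, Tween-20, DTT, on streptavidin plates. Phosphotyrosine detected by HRP anti-pTyr antibody ELISA, TMB absorbance at 450 nm; duplicate wells, DMSO as negative control.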

[1] = tested on: Aspergillus-induced airway inflammation model; test: Inhibitory effect on Aspergillus-induced airway inflammation model; assay type: in vivo; conditions: mice, oral, 10 mg/mL suspension at 10 mL/kg twice a day Day 0 to Day 9, BALF collected at Day 10
Method: Aspergillus fumigatus extracts (Greer laboratories, Inc.) were adjusted to 400 μg/mL with PBS. The Aspergillus fumigatus solutions thus prepared were administered to mice as nasal drops (50 μL) on Day 0, Day 1, Day 7 and Day 8. The nasal drop was administered one hour after the administration of test compounds in the morning. The test compound was administered twice a day in the morning and evening of Day 0 to Day 9. The test compound was suspended in 0.5% methylcellulose at 10 mg/mL, and orally administered at the dosage of 10 mL/kg. The bronchoalveolar lavage fluid (BALF) was collected at Day 10, and the total white blood cell count in BALF was measured using Celltac (NIHON KOHDEN). The ratio of eosinophil in total white blood cell was calculated using ADVIA 120 (Siemens Healthcare Diagnostics), and the ratio was multiplied by the total white blood cell count to determine the eosinophil count in BALF. The inhibition rate of the test compound was determined, assuming the inhibitory ratio in the treatment with Aspergillus fumigatus extract and 0.5% methylcellulose as 0% and the inhibitory ratio in the treatment without Aspergillus fumigatus extract but with 0.5% methylcellulose as 100%.

JAK3 = molecular target: T2, JAK3 (Homo sapiens, UniProt P52333); test: JAK tyrosine kinase inhibitory activity in the presence of 1 mM ATP (ELISA), JAK3; assay type: biochemical
T2 construct: purchased Carna Biosciences, Inc
T2 sequence (P52333 1-1124): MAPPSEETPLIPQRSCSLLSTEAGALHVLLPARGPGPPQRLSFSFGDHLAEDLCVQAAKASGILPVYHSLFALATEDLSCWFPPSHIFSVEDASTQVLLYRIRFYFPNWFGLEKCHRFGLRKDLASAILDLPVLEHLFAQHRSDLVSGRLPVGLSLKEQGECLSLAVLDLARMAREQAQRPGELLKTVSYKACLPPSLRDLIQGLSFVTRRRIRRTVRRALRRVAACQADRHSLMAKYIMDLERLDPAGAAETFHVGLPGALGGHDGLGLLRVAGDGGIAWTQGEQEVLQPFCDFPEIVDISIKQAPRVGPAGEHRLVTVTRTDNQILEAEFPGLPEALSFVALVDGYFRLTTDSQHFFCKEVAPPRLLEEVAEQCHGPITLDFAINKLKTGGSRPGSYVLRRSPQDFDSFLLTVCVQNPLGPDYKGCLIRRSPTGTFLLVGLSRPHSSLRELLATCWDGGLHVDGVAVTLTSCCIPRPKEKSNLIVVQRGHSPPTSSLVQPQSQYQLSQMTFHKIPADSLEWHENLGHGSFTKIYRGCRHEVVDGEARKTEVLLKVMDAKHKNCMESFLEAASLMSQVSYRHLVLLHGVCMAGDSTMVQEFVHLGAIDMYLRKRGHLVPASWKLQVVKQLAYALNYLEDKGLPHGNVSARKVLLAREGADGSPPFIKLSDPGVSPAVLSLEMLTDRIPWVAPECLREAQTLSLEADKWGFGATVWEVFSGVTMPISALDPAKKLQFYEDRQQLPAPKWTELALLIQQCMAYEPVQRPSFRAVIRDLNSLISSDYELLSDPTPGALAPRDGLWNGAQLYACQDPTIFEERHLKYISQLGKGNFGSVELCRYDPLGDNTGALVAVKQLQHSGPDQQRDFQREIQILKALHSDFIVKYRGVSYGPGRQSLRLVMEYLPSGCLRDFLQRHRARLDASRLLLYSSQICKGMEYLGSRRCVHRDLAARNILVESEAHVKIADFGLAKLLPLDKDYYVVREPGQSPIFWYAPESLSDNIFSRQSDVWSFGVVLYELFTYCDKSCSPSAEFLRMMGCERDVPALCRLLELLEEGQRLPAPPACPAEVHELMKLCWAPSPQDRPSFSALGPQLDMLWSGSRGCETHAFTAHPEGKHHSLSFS
Summary of the method: as §1

JAK2 = molecular target: T3, JAK2 (Homo sapiens, UniProt O60674); test: JAK tyrosine kinase inhibitory activity in the presence of 1 mM ATP (ELISA), JAK2; assay type: biochemical
T3 construct: purchased Carna Biosciences, Inc
T3 sequence (O60674 whole entry): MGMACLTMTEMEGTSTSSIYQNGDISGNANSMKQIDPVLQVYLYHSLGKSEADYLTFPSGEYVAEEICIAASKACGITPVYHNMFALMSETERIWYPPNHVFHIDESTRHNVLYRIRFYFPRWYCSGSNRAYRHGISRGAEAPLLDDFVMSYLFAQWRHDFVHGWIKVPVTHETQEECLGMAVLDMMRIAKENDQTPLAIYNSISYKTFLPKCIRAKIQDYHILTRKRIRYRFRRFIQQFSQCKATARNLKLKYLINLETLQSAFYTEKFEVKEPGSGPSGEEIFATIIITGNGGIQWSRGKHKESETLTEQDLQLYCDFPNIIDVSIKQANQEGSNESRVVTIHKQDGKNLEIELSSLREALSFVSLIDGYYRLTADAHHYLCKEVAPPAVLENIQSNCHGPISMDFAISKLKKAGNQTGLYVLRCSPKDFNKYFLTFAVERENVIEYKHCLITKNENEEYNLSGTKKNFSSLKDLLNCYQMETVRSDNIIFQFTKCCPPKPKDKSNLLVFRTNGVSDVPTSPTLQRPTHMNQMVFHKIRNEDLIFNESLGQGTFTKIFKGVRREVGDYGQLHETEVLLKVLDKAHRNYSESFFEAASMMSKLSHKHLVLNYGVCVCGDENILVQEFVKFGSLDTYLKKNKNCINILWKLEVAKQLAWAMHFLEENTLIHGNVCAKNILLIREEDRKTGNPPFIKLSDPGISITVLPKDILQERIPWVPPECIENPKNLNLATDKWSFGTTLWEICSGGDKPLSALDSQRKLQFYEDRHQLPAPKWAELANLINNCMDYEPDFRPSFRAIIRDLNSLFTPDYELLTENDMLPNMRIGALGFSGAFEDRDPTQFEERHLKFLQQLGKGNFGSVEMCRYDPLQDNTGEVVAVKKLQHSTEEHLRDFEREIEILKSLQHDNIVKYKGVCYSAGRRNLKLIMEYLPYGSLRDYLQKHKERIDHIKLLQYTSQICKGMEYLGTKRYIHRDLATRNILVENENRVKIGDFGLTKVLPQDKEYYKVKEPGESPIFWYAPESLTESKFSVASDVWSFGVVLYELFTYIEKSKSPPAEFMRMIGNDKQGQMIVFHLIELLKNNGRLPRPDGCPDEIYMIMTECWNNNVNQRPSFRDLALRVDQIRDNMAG
Summary of the method: as §1

T1 sequence (P23458 whole entry): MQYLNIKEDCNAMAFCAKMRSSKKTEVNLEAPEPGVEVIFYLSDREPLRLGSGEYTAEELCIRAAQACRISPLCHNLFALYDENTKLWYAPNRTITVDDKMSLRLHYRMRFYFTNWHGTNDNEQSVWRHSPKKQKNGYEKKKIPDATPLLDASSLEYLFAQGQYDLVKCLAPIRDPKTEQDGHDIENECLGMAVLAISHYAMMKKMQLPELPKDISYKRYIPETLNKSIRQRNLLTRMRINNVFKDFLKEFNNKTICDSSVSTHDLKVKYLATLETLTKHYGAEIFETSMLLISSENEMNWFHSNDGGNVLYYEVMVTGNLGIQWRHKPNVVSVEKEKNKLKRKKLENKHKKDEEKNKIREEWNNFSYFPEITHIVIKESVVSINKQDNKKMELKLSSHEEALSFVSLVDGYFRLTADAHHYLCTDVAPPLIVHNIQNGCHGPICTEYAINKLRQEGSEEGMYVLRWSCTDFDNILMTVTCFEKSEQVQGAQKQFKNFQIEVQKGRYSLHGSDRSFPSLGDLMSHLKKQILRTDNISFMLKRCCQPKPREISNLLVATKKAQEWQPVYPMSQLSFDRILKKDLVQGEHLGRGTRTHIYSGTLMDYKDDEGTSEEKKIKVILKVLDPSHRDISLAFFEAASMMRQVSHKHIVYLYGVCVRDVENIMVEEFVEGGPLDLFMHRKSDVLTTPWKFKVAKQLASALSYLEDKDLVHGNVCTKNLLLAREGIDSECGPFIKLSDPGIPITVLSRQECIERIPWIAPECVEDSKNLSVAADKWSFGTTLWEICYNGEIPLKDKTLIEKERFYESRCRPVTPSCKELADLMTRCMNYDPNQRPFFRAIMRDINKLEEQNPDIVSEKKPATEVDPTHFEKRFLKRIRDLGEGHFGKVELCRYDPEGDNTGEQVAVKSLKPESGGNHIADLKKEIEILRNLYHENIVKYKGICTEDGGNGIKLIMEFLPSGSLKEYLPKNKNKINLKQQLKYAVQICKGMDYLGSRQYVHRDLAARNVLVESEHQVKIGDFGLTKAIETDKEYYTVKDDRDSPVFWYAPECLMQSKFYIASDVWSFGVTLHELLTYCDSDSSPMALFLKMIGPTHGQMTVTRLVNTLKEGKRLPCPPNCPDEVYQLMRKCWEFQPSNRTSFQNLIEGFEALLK

SMILES | IC50 (JAK1) [nM] | Inhibition rate on count of invasive eosinophil in BALF (%) [1] [%] | IC50 (JAK3) [nM] | IC50 (JAK2) [nM]
CC[C@@H](C)Nc1cc(C(=O)N2CCC(NC(=O)OC)CC2)nc(-c2cnn3ccsc23)n1.Cl [Example 127, Methyl [1-({6-[(2R)-butan-2-ylamino]-2-(pyrazolo[5,1-b][1,3]thiazol-7-yl)pyrimidin-4-yl}carbonyl)piperidin-4-yl]carbamate hydrochloride] | 590 | 38 | – | –
COC(=O)NC1CCN(C(=O)c2cc(NCC3CCN(C(=O)OC)CC3)nc(-c3cnn4ccsc34)n2)CC1 [Example 192, Methyl 4-([6-4-[(methoxycarbonyl)amino]piperidine-1-carbonyl-2-(pyrazolo[5,1-b][1,3]thiazol-7-yl)pyrimidin-4-yl]aminomethyl)piperidine-1-carboxylate] | 690 | – | > 10000 | > 10000
CC(C)S(=O)(=O)N1CCC(Nc2cc(C(=O)N3CCC(NC(=O)C4CC4)CC3)nc(-c3cnn4ccsc34)n2)CC1 [Example 193, N-1-[6-[1-(propane-2-sulfonyl)piperidin-4-yl]amino-2-(pyrazolo[5,1-b][1,3]thiazol-7-yl)pyrimidine-4-carbonyl]piperidin-4-ylcyclopropanecarboxamide] | 470 | – | > 10000 | > 10000
COC(=O)N1CCC(Nc2cc(C(=O)N3CCC(NC(=O)C4CC4)CC3)nc(-c3cnn4ccsc34)n2)CC1 [Example 194, Methyl 4-[6-4-[(cyclopropanecarbonyl)amino]piperidine-1-carbonyl-2-(pyrazolo[5,1-b][1,3]thiazol-7-yl)pyrimidin-4-yl]aminopiperidine-1-carboxylate] | 260 | – | > 10000 | > 10000
CCCCCCC(=O)NC1CCN(C(=O)c2cc(N[C@H](C)C(C)(C)C)nc(-c3cnn4ccsc34)n2)CC1 [Example 195, N-1-[6-[(2R)-3,3-dimethylbutan-2-yl]amino-2-(pyrazolo[5,1-b][1,3]thiazol-7-yl)pyrimidine-4-carbonyl]piperidin-4-ylheptanamide] | 310 | – | 4900 | 9000
C[C@@H](Nc1cc(C(=O)N2CCC(NC(=O)c3ccccc3Cl)CC2)nc(-c2cnn3ccsc23)n1)C(C)(C)C [Example 196, 2-Chloro-N-1-[6-[(2R)-3,3-dimethylbutan-2-yl]amino-2-(pyrazolo[5,1-b][1,3]thiazol-7-yl)pyrimidine-4-carbonyl]piperidin-4-ylbenzamide] | 110 | – | 7300 | 9100
C[C@@H](Nc1cc(C(=O)N2CCC(NC(=O)c3ccc(F)cc3)CC2)nc(-c2cnn3ccsc23)n1)C(C)(C)C [Example 197, N-1-[6-[(2R)-3,3-dimethylbutan-2-yl]amino-2-(pyrazolo[5,1-b][1,3]thiazol-7-yl)pyrimidine-4-carbonyl]piperidin-4-yl-4-fluorobenzamide] | 120 | – | 3800 | 8200
CCC(=O)N1CCC(Nc2cc(C(=O)N3CCC(NC(=O)OC)CC3)nc(-c3cnn4ccsc34)n2)CC1 [Example 198, Methyl (1-6-[(1-propanoylpiperidin-4-yl)amino]-2-(pyrazolo[5,1-b][1,3]thiazol-7-yl)pyrimidine-4-carbonylpiperidin-4-yl)carbamate] | 1500 | – | > 10000 | > 10000
COC(=O)NC1CCN(C(=O)c2cc(NC3CCN(C(=O)CC#N)CC3)nc(-c3cnn4ccsc34)n2)CC1 [Example 199, Methyl (1-{[6-{[1-(cyanoacetyl)piperidin-4-yl]amino}-2-(pyrazolo[5,1-b][1,3]thiazol-7-yl)pyrimidin-4-yl]carbonyl}piperidin-4-yl)carbamate] | 2800 | – | > 10000 | > 10000
COC(=O)NC1CCN(C(=O)c2cc(NC3CCN(S(C)(=O)=O)CC3)nc(-c3cnn4ccsc34)n2)CC1 [Example 200, Methyl 1-[6-[1-(methanesulfonyl)piperidin-4-yl]amino-2-(pyrazolo[5,1-b][1,3]thiazol-7-yl)pyrimidine-4-carbonyl]piperidin-4-ylcarbamate] | 2400 | – | > 10000 | > 10000
COC(=O)NC1CCN(C(=O)c2cc(N[C@@H]3CCN(C(=O)CC#N)C3)nc(-c3cnn4ccsc34)n2)CC1 [Example 201, Methyl 1-[6-[(3R)-1-(cyanoacetyl)pyrrolidin-3-yl]amino-2-(pyrazolo[5,1-b][1,3]thiazol-7-yl)pyrimidine-4-carbonyl]piperidin-4-ylcarbamate] | 120 | – | > 10000 | > 10000
CCC(=O)NC1CCN(C(=O)c2cc(N[C@@H]3CCN(C(=O)CC#N)C3)nc(-c3cnn4ccsc34)n2)CC1 [Example 202, N-1-[6-[(3R)-1-(cyanoacetyl)pyrrolidin-3-yl]amino-2-(pyrazolo[5,1-b][1,3]thiazol-7-yl)pyrimidine-4-carbonyl]piperidin-4-ylpropanamide] | 300 | – | > 10000 | > 10000
CCOC(=O)NC1CCN(C(=O)c2cc(N[C@@H]3CCN(C(=O)CC#N)C3)nc(-c3cnn4ccsc34)n2)CC1 [Example 203, Ethyl 1-[6-[(3R)-1-(cyanoacetyl)pyrrolidin-3-yl]amino-2-(pyrazolo[5,1-b][1,3]thiazol-7-yl)pyrimidine-4-carbonyl]piperidin-4-ylcarbamate] | 70 | – | > 10000 | > 10000
N#CCC(=O)N1CC[C@H](Nc2cc(C(=O)N3CCC(NC(=O)C4CC4)CC3)nc(-c3cnn4ccsc34)n2)C1 [Example 204, N-1-[6-[(3S)-1-(cyanoacetyl)pyrrolidin-3-yl]amino-2-(pyrazolo[5,1-b][1,3]thiazol-7-yl)pyrimidine-4-carbonyl]piperidin-4-ylcyclopropanecarboxamide] | 2700 | – | > 10000 | > 10000
COC(=O)NC1CCN(C(=O)c2cc(N[C@@H]3CCN(C(=O)C4CC4)C3)nc(-c3cnn4ccsc34)n2)CC1 [Example 205, Methyl 1-[6-[(3R)-1-(cyclopropanecarbonyl)pyrrolidin-3-yl]amino-2-(pyrazolo[5,1-b][1,3]thiazol-7-yl)pyrimidine-4-carbonyl]piperidin-4-ylcarbamate] | 850 | – | > 10000 | > 10000
COC(=O)NC1CCN(C(=O)c2cc(N[C@@H]3CCN(C(=O)C4CCC4)C3)nc(-c3cnn4ccsc34)n2)CC1 [Example 206, Methyl 1-[6-[(3R)-1-(cyclobutanecarbonyl)pyrrolidin-3-yl]amino-2-(pyrazolo[5,1-b][1,3]thiazol-7-yl)pyrimidine-4-carbonyl]piperidin-4-ylcarbamate] | 940 | – | > 10000 | > 10000
CCCC(=O)N1CC[C@@H](Nc2cc(C(=O)N3CCC(NC(=O)OC)CC3)nc(-c3cnn4ccsc34)n2)C1 [Example 207, Methyl 1-[6-[(3R)-1-butanoylpyrrolidin-3-yl]amino-2-(pyrazolo[5,1-b][1,3]thiazol-7-yl)pyrimidine-4-carbonyl]piperidin-4-ylcarbamate] | 410 | – | > 10000 | > 10000

Source: patent US9999622B2, “Pyrazolothiazole compound and medicine comprising same” (NIPPON SHINYAKU CO., LTD., priority 2014, dated 2018)
